Reference: patent US12435089B2, “3-oxadiazolyl substituted pyrazolo[1,5,a]pyrimidines for ROS1, NTRK, and ALK mediated diseases” (TYK MEDICINES, INC., priority 2019, dated 2025)
Read-outs that look alike come from different tables or passages of the source.

Columns and labels:
[1] = biological target: TRKA (G595R) (Homo sapiens (Human), UniProt P04629, G595R); test: Radio-tagged HotSpot kinase assay, TRKA (G595R)
Protocol: (§2) Inhibition of protein kinase activity by compounds was carried out on the Radio-tagged HotSpot kinase experimental platform of Reaction Biology Corporation. Fresh reaction solution (20 mM HEPESpH 7.5, 10 mM MgCl2, 1 mM EGTA, 0.02% Brij35, 0.02 mg/ml BSA, 0.1 mM Na3VO4, 2 mM DTT, 1% DMSO) containing corresponding substrates was prepared, cofactor and kinase to be tested were added into the above solution and mixed gently. Echo550 pipetting system was used to add the test compound DMSO solution to each well (the blank control group was added with the corresponding volume of DMSO), then 33P-ATP (with a final specific activity of 0.01 μCi/μL) was added to start the reaction. The reaction solution was incubated at room temperature for 120 minutes.

[2] = biological target: TRKA (G677C) (Homo sapiens, UniProt P04629, G667C); test: Radio-tagged HotSpot kinase assay, TRKA (G677C); format: biochemical; conditions: 33P-ATP, 120 min, room temperature
Sequence of TRKA (G677C) (P04629 33-796 G667C limits assumed): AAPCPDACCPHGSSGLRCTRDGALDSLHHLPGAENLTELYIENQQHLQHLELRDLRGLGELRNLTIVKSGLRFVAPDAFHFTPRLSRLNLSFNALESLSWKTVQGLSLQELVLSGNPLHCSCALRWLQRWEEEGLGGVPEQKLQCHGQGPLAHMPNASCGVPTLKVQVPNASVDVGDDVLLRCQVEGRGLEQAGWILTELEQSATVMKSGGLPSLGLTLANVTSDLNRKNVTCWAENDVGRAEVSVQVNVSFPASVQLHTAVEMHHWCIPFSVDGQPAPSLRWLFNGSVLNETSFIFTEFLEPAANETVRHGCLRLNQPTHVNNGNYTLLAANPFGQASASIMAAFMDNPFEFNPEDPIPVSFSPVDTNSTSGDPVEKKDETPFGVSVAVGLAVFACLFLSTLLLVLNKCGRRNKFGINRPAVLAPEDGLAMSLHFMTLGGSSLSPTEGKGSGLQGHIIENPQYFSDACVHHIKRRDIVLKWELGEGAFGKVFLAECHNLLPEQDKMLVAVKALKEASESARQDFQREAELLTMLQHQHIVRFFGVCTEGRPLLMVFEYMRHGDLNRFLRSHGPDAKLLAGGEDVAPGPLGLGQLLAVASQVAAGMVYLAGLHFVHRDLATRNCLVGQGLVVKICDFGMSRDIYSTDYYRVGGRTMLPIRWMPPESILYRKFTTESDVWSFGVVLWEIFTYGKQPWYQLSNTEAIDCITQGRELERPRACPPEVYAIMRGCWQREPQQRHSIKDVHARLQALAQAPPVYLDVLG
Protocol: as §2

[3] = biological target: ROS1 (G2032R) (Homo sapiens (Human), UniProt P08922, G2032R); test: Radio-tagged HotSpot kinase assay, ROS1 (G2032R)
Protocol: as §2

[4] = biological target: ALK (Homo sapiens (Human), UniProt Q9UM73); test: Radio-tagged HotSpot kinase assay, ALK; format: biochemical; conditions: 33P-ATP, 120 min, room temperature
Sequence of ALK (Q9UM73 19-1620): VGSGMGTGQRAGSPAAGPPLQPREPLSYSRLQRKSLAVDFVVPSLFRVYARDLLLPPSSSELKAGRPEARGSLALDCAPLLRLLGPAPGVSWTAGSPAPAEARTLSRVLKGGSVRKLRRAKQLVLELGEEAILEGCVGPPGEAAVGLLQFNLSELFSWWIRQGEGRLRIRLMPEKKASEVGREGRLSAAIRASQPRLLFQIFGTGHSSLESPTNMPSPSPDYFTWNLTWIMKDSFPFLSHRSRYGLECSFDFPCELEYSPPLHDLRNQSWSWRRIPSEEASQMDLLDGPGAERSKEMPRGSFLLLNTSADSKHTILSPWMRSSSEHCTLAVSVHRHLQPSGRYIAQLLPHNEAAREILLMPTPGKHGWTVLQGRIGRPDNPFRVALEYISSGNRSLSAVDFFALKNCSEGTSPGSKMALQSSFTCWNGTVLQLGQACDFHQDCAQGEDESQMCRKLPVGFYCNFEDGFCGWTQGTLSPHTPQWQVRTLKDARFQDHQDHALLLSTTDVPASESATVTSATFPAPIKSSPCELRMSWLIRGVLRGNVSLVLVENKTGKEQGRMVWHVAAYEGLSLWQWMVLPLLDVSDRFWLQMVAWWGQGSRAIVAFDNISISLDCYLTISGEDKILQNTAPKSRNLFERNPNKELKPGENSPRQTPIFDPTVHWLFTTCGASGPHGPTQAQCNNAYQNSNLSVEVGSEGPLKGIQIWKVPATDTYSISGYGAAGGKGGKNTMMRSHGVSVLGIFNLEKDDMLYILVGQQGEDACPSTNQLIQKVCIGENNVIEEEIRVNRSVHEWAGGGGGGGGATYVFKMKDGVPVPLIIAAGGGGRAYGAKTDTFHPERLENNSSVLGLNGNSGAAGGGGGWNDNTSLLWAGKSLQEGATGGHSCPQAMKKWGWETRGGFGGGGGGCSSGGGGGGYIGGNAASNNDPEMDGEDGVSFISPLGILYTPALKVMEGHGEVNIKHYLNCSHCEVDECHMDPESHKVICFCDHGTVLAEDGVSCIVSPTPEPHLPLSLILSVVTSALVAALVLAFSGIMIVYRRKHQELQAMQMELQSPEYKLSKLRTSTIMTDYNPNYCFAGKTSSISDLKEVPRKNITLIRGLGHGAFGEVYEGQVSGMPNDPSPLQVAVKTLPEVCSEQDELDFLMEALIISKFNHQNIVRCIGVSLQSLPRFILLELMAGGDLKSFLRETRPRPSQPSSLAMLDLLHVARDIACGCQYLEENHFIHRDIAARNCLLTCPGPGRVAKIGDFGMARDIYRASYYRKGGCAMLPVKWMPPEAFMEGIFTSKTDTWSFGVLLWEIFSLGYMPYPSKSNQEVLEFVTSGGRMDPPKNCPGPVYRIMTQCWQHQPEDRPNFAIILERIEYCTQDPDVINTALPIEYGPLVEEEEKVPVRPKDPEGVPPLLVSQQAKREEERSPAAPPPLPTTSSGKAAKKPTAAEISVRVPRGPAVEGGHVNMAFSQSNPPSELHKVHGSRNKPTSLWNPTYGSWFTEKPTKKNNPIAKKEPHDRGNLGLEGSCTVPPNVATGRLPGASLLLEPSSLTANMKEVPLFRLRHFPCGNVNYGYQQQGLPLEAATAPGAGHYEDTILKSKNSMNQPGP
Protocol: as §2

[5] = biological target: TRKC (Homo sapiens (Human), UniProt Q16288); test: Radio-tagged HotSpot kinase assay, TRKC; format: biochemical; conditions: 33P-ATP, 120 min, room temperature
Sequence of TRKC (Q16288 32-839): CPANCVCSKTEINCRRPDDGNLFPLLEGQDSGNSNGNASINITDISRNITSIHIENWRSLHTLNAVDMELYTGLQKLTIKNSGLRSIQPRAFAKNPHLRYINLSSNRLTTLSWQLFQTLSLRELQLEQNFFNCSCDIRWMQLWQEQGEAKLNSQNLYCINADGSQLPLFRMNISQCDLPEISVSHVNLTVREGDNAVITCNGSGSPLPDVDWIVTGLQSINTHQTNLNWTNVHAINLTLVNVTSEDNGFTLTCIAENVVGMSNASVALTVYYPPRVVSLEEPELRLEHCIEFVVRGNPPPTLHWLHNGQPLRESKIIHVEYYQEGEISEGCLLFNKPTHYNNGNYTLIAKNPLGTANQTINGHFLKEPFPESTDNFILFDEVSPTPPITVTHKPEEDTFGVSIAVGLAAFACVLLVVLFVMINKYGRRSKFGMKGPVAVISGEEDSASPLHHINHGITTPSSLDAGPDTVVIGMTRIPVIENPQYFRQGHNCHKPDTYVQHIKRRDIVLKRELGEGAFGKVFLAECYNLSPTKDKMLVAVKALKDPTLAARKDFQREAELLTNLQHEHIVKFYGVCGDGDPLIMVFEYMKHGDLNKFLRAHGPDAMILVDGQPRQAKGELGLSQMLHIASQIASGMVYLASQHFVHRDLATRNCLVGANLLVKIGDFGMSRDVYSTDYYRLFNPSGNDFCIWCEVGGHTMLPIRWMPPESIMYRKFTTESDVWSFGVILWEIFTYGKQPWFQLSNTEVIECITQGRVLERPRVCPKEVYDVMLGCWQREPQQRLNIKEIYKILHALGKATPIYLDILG
Protocol: as §2

[6] = biological target: TRKB (Homo sapiens (Human), UniProt Q16620); test: Radio-tagged HotSpot kinase assay, TRKB; format: biochemical; conditions: 33P-ATP, 120 min, room temperature
Sequence of TRKB (Q16620 32-822): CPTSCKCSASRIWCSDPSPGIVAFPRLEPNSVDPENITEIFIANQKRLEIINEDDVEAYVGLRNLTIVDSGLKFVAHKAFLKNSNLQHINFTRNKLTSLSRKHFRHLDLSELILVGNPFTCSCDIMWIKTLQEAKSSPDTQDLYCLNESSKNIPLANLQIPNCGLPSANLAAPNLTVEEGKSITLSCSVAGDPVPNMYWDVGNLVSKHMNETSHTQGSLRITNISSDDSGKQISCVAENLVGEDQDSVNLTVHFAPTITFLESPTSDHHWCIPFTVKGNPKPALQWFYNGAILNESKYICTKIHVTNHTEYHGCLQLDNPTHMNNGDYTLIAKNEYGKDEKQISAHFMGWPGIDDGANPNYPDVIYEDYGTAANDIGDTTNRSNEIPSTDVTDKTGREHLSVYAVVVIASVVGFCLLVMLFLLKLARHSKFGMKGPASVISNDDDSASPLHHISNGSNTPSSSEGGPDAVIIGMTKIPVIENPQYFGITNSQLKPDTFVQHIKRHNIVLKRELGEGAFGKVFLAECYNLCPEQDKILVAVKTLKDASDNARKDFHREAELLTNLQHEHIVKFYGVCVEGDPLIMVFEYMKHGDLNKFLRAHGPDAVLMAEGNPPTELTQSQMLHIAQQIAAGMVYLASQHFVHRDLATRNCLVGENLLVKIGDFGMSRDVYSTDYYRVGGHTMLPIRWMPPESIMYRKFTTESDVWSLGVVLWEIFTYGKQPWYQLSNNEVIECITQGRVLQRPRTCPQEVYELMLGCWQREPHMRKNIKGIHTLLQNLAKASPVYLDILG
Protocol: as §2

[7] = biological target: ROS1 (Homo sapiens (Human), UniProt P08922); test: Radio-tagged HotSpot kinase assay, ROS1; conditions: read-out: ROS1 (IC50/nM); 33P-ATP, 120 min, room temperature
Protocol: as §2

[8] = biological target: ALK (G1202R) (Homo sapiens (Human), UniProt Q9UM73, G1202R); test: Radio-tagged HotSpot kinase assay, ALK (G1202R); format: biochemical; conditions: 33P-ATP, 120 min, room temperature
Sequence of ALK (G1202R) (Q9UM73 19-1620 G1202R): as the sequence (Q9UM73 19-1620) above, with G1184R counted along it
Protocol: as §2

[9] = biological target: TRKA (Homo sapiens (Human), UniProt P04629); test: Radio-tagged HotSpot kinase assay, TRKA;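 also: kinase activity measured through incorporation of 33P from labelled ATP into substrate, 120 min at room temperature, relative to a DMSO-only blank control, reported as inhibition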
Sequence of TRKA (P04629 33-796): as the sequence (P04629 33-796 G667C limits assumed) above, with C635G counted along it
Protocol: as §2

[10] = test system: Ba/F3-LMNA-NTRK1; test: Inhibition of cell proliferation (CellTiter-Glo), Ba/F3-LMNA-NTRK1; format: cell-based; conditions: 72 hours
Protocol: (§1) The experiment of inhibiting cell proliferation by compounds was carried out in Hefei Zhongkeprecedo Biomedical Technology Co., Ltd. The Ba/F3 engineered cell line stably transfected with different kinase genes was recovered with RPMI 1640 medium (Biological Industries, Israel)+10% fetal bovine serum (Biological Industries, Israel)+1% double antibody (Penicillin Streptomycin solution, Coring, USA) and cultivated two generations. The logarithmic growth phase cell suspension was taken, and 2000 cells/well were inoculated on 96-well white cell culture plate (Corning 3917, NY, USA) with a volume of 95 μL per well. 5 μL of 20×DMSO solution of the compound to be tested was added into the culture plate containing 95 μL of cell suspension. The blank control group was added with corresponding volume of DMSO, mixed well, and incubated in a 5% CO2 incubator at 37° C. for 72 hours. CellTiter-Glo was used to detect cell viability.

[11] = test system: Ba/F3-LMNA-NTRK1-G595R; test: Inhibition of cell proliferation (CellTiter-Glo), Ba/F3-LMNA-NTRK1-G595R; format: cell-based; conditions: 72 hours
Protocol: as §1

[12] = test system: Ba/F3-TEL-ALK-G1202R; test: Inhibition of cell proliferation (CellTiter-Glo), Ba/F3-TEL-ALK-G1202R; format: cell-based; conditions: 72 hours
Protocol: as §1

[13] = test system: Ba/F3-CD74-ROS1-G2032R; test: Inhibition of cell proliferation (CellTiter-Glo), Ba/F3-CD74-ROS1-G2032R; format: cell-based; conditions: 72 hours;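 also: Ba/F3 cell line expressing the CD74-ROS1 fusion with G2032R mutation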
Protocol: as §1

[14] = test system: Ba/F3-CD74-ROS1; test: Inhibition of cell proliferation (CellTiter-Glo), Ba/F3-CD74-ROS1; format: cell-based; conditions: 72 hours
Protocol: as §1

[15] = read-out: ROS1 (G2032R) (IC50/nM), 33P-ATP, 120 min, room temperature
[16] = read-out: TRKA (IC50/nM), 33P-ATP, 120 min, room temperature

Sequence of TRKA (G595R) (P04629 33-796 G595R): as the sequence (P04629 33-796 G667C limits assumed) above, with G563R, C635G counted along it

Compound	IC50 [1]	IC50 [2]	IC50 [3, 15]	IC50 [4]	IC50 [5]	IC50 [6]	IC50 [7]	IC50 [8]	IC50 [9]	IC50 [3]	IC50 [9, 16]	IC50 [10]	IC50 [11]	IC50 [12]	IC50 [13]	IC50 [14]
CC(C)Oc1ccc(F)cc1[C@@H](C)Nc1ccn2ncc(C3=NOC(C)(C)N3)c2n1 [Example 51]	5 to 50 nM	5 to 50 nM	< 0.5 nM	5 to 50 nM	< 0.5 nM	< 0.5 nM	< 0.5 nM	0.5 to 5 nM	0.5 to 5 nM	–	–	–	–	–	–	–
CCOc1ccc(F)cc1[C@@H](C)Nc1ccn2ncc(C3=NOC(C)(C)N3)c2n1 [Example 50]	0.5 to 5 nM	0.5 to 5 nM	< 0.5 nM	5 to 50 nM	< 0.5 nM	< 0.5 nM	< 0.5 nM	0.5 to 5 nM	0.5 to 5 nM	–	–	–	–	–	–	–
C[C@@H](Nc1ccn2ncc(C3=NOC(C)(C)N3)c2n1)c1cc(F)ccc1F [Example 5]	5 to 50 nM	5 to 50 nM	< 0.5 nM	0.5 to 5 nM	< 0.5 nM	< 0.5 nM	< 0.5 nM	5 to 50 nM	0.5 to 5 nM	–	–	–	–	–	–	–
CCc1ccc(F)cc1[C@@H](C)Nc1ccn2ncc(C3=NOC(C)(C)N3)c2n1 [Example 52]	5 to 50 nM	50 to 500 nM	–	50 to 500 nM	< 0.5 nM	0.5 to 5 nM	< 0.5 nM	5 to 50 nM	0.5 to 5 nM	0.5 to 5 nM	–	–	–	–	–	–
COc1ncc(F)cc1[C@@H](C)Nc1ccn2ncc(C3=NOC(C)(C)N3)c2n1 [Example 28]	0.5 to 5 nM	5 to 50 nM	< 0.5 nM	5 to 50 nM	< 0.5 nM	< 0.5 nM	< 0.5 nM	0.5 to 5 nM	–	–	< 0.5 nM	–	–	–	–	–
COc1ccc(F)cc1[C@@H](C)Nc1ccn2ncc(C3=NOC(C)(C)N3)c2n1 [Example 10]	0.5 to 5 nM	0.5 to 5 nM	< 0.5 nM	5 to 50 nM	< 0.5 nM	< 0.5 nM	< 0.5 nM	0.5 to 5 nM	–	–	< 0.5 nM	1.3 nM	2.2 nM	87.5 nM	7.9 nM	2.8 nM
